For the test, the target named is T1, BACE1 (Homo sapiens, UniProt P56817).
T1 construct: endogenous in cells; host or cells: HEK293 APP cells
Description: Cellular Aβ-lowering assay (Abeta 40 AlphaLISA, HEK293 APP cells). The format is cell-based. The note with it: 18-20 hrs incubation, Aβ40 in culture supernatant, read-out: BACE1 cell act. Aβ40 IC50. As for the experimental part: Cellular Aβ-lowering assay:
The Abeta 40 AlphaLISA Assay can be used. The HEK293 APP cells were seeded in 96 well Microtiter plates in cell culture medium (Iscove's, plus 10% (v/v) fetal bovine serum, penicillin/streptomycin) to about 80% confluency and the compounds were added at a 3× concentration in ⅓ volume of culture medium (final DMSO concentration was kept at 1% v/v). After 18-20 hrs incubation at 37° C. and 5% CO2 in a humidified incubator, the culture supernatants were harvested for the determination of AP 40 concentrations using Perkin-Elmer Human Amyloid beta 1-40 (high specificity) Kit (Cat#AL275C).
In a Perkin-Elmer White Optiplate-384 (Cat#6007290), 2 ul culture supernatants were combined with 2 μl of a 10× AlphaLISA Anti-hAβ Acceptor beads+Biotinylated Antibody Anti-Aβ 1-40 Mix ([…]/5 nM). After 1 hour room temperature incubation, 16 μl of a 1.25× preparation of Streptavidin (SA) Donor beads (25 μg/mL) were added and incubated for 30 minutes in the Dark. Light Emission at 615 nm was then recorded using EnVision-Alpha Reader. Levels of Aβ 40 in the culture supernatants were calculated as percentage of maximum signal (cells treated with 1% DMSO without inhibitor). The IC50 values were calculated using the Excel XLfit software.
For orientation: Alpha assays give light when donor and acceptor beads are brought close together.

For orientation: IC50 means the midpoint of a concentration-inhibition curve.

T1 sequence (P56817 46-501): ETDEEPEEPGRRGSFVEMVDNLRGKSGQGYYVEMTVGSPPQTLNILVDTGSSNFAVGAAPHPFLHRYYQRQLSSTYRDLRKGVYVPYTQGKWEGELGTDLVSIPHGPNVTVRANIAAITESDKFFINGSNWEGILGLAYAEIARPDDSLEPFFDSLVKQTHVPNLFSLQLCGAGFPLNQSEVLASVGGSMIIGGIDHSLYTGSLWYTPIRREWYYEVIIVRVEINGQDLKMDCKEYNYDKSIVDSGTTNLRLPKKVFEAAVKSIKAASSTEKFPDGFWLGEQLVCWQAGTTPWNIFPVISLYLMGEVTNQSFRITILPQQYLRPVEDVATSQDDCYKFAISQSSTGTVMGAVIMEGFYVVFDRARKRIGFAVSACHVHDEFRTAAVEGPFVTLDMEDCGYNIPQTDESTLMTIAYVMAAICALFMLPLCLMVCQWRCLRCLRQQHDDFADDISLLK

In the case of `CC1(C)C(N)=N[C@](C)(c2nc(NC(=O)c3ccc(C(=O)O)cn3)ccc2F)[C@H]2CC(F)(F)CN=[S@@]21=O` [Example 44AA, 6-((6-((4aR,5R,9R)-7-amino-3,3-difluoro-5,8,8-trimethyl-9-oxido-2,3,4,4a,5,8-hexahydro-[1,4]thiazino[2,1-f][1,2]thiazin-5-yl)-5-fluoropyridin-2-yl)carbamoyl)nicotinic acid], the IC50 is above 40 nM.
Take `Cc1cc(Cl)cnc1C(=O)Nc1ccc(F)c([C@@]2(C)N=C(N)C(C)(C)[S@]3(=O)=NCC[C@H]23)n1` [Example 12BA, N-(6-((3aR,4R,8S)-6-amino-4,7,7-trimethyl-8-oxido-3,3a,4,7-tetrahydro-2H-isothiazolo[1,5-a][1,4]thiazin-4-yl)-5-fluoropyridin-2-yl)-5-chloro-3-methylpicolinamide]: the IC50 was 24.2 nM.
`CC1(C)C(N)=N[C@](C)(c2nc(NC(=O)c3ccc(C#N)cc3Cl)ccc2F)[C@@H]2CCN=[S@@]21=O` [Example 31AB, N-(6-((3aS,4R,8R)-6-amino-4,7,7-trimethyl-8-oxido-3,3a,4,7-tetrahydro-2H-isothiazolo[1,5-a][1,4]thiazin-4-yl)-5-fluoropyridin-2-yl)-2-chloro-4-cyanobenzamide]: the IC50 was found to be 34 nM.
Consider `CC1(C)C(N)=N[C@](C)(c2nc(NC(=O)c3ncc(F)cc3Cl)ccc2F)[C@H]2CCN=[S@]21=O` [Example 11BA, N-(6-((3aR,4R,8S)-6-amino-4,7,7-trimethyl-8-oxido-3,3a,4,7-tetrahydro-2H-isothiazolo[1,5-a][1,4]thiazin-4-yl)-5-fluoropyridin-2-yl)-3-chloro-5-fluoropicolinamide], for which the IC50 was 117 nM.
The figure for `CC1(C)C(N)=N[C@](C)(c2nc(NC(=O)c3nn(C(F)F)cc3Cl)ccc2F)[C@@H]2CCN=[S@@]21=O` [Example 51AB, N-(6-((3aS,4R,8R)-6-amino-4,7,7-trimethyl-8-oxido-3,3a,4,7-tetrahydro-2H-isothiazolo[1,5-a][1,4]thiazin-4-yl)-5-fluoropyridin-2-yl)-4-chloro-1-(difluoromethyl)-1H-pyrazole-3-carboxamide] is below 10 nM; for `CC1(C)C(N)=N[C@](C)(c2nc(NC(=O)c3ccc(OCC(F)(F)C(F)F)cn3)ccc2F)[C@H]2CCN=[S@]21=O` [Example 15BA, N-(6-((3aR,4R,8S)-6-amino-4,7,7-trimethyl-8-oxido-3,3a,4,7-tetrahydro-2H-isothiazolo[1,5-a][1,4]thiazin-4-yl)-5-fluoropyridin-2-yl)-5-(2,2,3,3-tetrafluoropropoxy)picolinamide] it is 557 nM.
For `CC1(C)C(N)=N[C@](C)(c2nc(NC(=O)c3ccc(OCF)cn3)ccc2F)[C@H]2CCN=[S@]21=O` [Example 13BA, N-(6-((3aR,4R,8S)-6-amino-4,7,7-trimethyl-8-oxido-3,3a,4,7-tetrahydro-2H-isothiazolo[1,5-a][1,4]thiazin-4-yl)-5-fluoropyridin-2-yl)-5-(fluoromethoxy)picolinamide], the IC50 is 382 nM.
Take `CC1(C)C(N)=N[C@](C)(c2nc(NC(=O)c3ccc(OC(F)F)cn3)ccc2F)[C@H]2CCN=[S@]21=O` [Example 14BA, N-(6-((3aR,4R,8S)-6-amino-4,7,7-trimethyl-8-oxido-3,3a,4,7-tetrahydro-2H-isothiazolo[1,5-a][1,4]thiazin-4-yl)-5-fluoropyridin-2-yl)-5-(difluoromethoxy)picolinamide]: the IC50 worked out at 52.6 nM.
Take `CC1(C)C(N)=N[C@](C)(c2nc(NC(=O)c3cnc(OC(F)F)cn3)ccc2F)[C@H]2CCN=[S@]21=O` [Example 26BA, N-(6-((3aR,4R,8S)-6-amino-4,7,7-trimethyl-8-oxido-3,3a,4,7-tetrahydro-2H-isothiazolo[1,5-a][1,4]thiazin-4-yl)-5-fluoropyridin-2-yl)-5-(difluoromethoxy)pyrazine-2-carboxamide]: the half-maximal inhibitory concentration (IC50) turned out to be 152 nM.
Take `Cc1cc(F)cnc1C(=O)Nc1ccc(F)c([C@@]2(C)N=C(N)C(C)(C)[S@@]3(=O)=NCC(F)(F)C[C@H]23)n1` [Example 39AA, N-(6-((4aR,5R,9R)-7-amino-3,3-difluoro-5,8,8-trimethyl-9-oxido-2,3,4,4a,5,8-hexahydro-[1,4]thiazino[2,1-f][1,2]thiazin-5-yl)-5-fluoropyridin-2-yl)-5-fluoro-3-methylpicolinamide]: the IC50 stood at 114 nM.
`COc1cnc(C(=O)Nc2ccc(F)c([C@@]3(C)N=C(N)C(C)(C)[S@@]4(=O)=NCC(F)(F)C[C@H]34)n2)cn1` [Example 38AA, N-(6-((4aR,5R,9R)-7-amino-3,3-difluoro-5,8,8-trimethyl-9-oxido-2,3,4,4a,5,8-hexahydro-[1,4]thiazino[2,1-f][1,2]thiazin-5-yl)-5-fluoropyridin-2-yl)-5-methoxypyrazine-2-carboxamide]: the concentration for half-maximal inhibition (IC50) came to 295 nM.
To `Cc1cc(C#N)cnc1C(=O)Nc1ccc(F)c([C@@]2(C)N=C(N)C(C)(C)[S@@]3(=O)=NCC4(CC4)C[C@@H]23)n1` [Example 48AB, N-(6-((4aS,5R,9R)-7-amino-5,8,8-trimethyl-9-oxido-4,4a,5,8-tetrahydro-2H-spiro[[1,4]-thiazino[2,1-f][1,2]thiazine-3,1′-cyclopropan]-5-yl)-5-fluoropyridin-2-yl)-5-cyano-3-methylpicolinamide] belongs 13 nM; to `COc1cnc(C(=O)Nc2ccc(F)c([C@@]3(C)N=C(N)C(C)(C)[S@]4(=O)=NCC[C@H]34)n2)cn1` [Example 16BA, N-(6-((3aR,4R,8S)-6-amino-4,7,7-trimethyl-8-oxido-3,3a,4,7-tetrahydro-2H-isothiazolo[1,5-a][1,4]thiazin-4-yl)-5-fluoropyridin-2-yl)-5-methoxypyrazine-2-carboxamide], 115 nM; to `CC1(C)C(N)=N[C@](C)(c2nc(NC(=O)c3ccc(C#N)cc3)ccc2F)[C@@H]2CCN=[S@@]21=O` [Example 30AB, N-(6-((3aS,4R,8R)-6-amino-4,7,7-trimethyl-8-oxido-3,3a,4,7-tetrahydro-2H-isothiazolo[1,5-a][1,4]thiazin-4-yl)-5-fluoropyridin-2-yl)-4-cyanobenzamide], 14 nM.
Turning to `CC1(C)C(N)=N[C@](C)(c2nc(NC(=O)c3cnc(OCC(F)F)cn3)ccc2F)[C@H]2CC(F)(F)CN=[S@@]21=O` [Example 46AA, N-(6-((4aR,5R,9R)-7-amino-3,3-difluoro-5,8,8-trimethyl-9-oxido-2,3,4,4a,5,8-hexahydro-[1,4]thiazino[2,1-f][1,2]thiazin-5-yl)-5-fluoropyridin-2-yl)-5-(2,2-difluoroethoxy)pyrazine-2-carboxamide], the IC50 was 144 nM.
To `CC#Cc1ccc(C(=O)Nc2ccc(F)c([C@@]3(C)N=C(N)C(C)(C)[S@@]4(=O)=NCC(F)(F)C[C@H]34)n2)nc1` [Example 47AA, N-(6-((4aR,5R,9R)-7-amino-3,3-difluoro-5,8,8-trimethyl-9-oxido-2,3,4,4a,5,8-hexahydro-[1,4]thiazino[2,1-f][1,2]thiazin-5-yl)-5-fluoropyridin-2-yl)-5-(prop-1-yn-1-yl)picolinamide] belongs 147 nM; to `CC1(C)C(N)=N[C@](C)(c2nc(NC(=O)c3ccc(F)cn3)ccc2F)[C@H]2CCN=[S@]21=O` [Example 27BA, N-(6-((3aR,4R,8S)-6-amino-4,7,7-trimethyl-8-oxido-3,3a,4,7-tetrahydro-2H-isothiazolo[1,5-a][1,4]thiazin-4-yl)-5-fluoropyridin-2-yl)-5-fluoropicolinamide], 118 nM.

The values above are taken from patent publication US9540397B2, “BACE1 inhibitors” (Hoffmann-La Roche Inc., priority 2014, dated 2017).
